The values below come from patent publication US20230203059A1, “MACROCYCLIC JAK INHIBITOR AND USES THEREOF” (Biopolar Hongye (Guangdong) Pharmaceutical Co. Ltd., priority 2020, published 2023).

Common to all, as to type: biochemical
One experiment deals with TYK2 (Homo sapiens, UniProt P29597). Description: JAK kinase activity, homogeneous time-resolved fluorescence (TYK2 reaction system). To be noted: ATP 2 μM, TYK2 protein 0.2 ng/μL; read-out: TYK 2 activity. A digest of the protocol:
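Activity read as the 665 nm/615 nm ratio after adding EDTA-containing detection mix with anti-phospho-substrate antibody and XL-615. Beforehand, 0.2 ng/μL TYK2, 2 μM ATP, substrate and compound reacted 1 h in pH 7.0 Hepes buffer with MgCl2 and DTT. IC50 fitted with Hill-slope equation.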

The next experiment deals with JAK1 (Homo sapiens, UniProt P23458). Put plainly: JAK kinase activity, homogeneous time-resolved fluorescence (JAK1 reaction system). The conditions noted are these: ATP 2 μM, JAK1 protein 0.2 ng/μL; read-out: JAK 1 activity. A digest of the protocol: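 HTRF assay: JAK1 (0.2 ng/μL) with 2 μM ATP and substrate in 50 mM Hepes pH 7.0, 5 mM MgCl2, 1 mM DTT, 1 h. Phospho-substrate antibody/XL-615 detection with EDTA; 665/615 nm ratio, excitation 320 nm. IC50 from Hill-type fit against no-enzyme and no-compound controls.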

A further experiment concerns the target T1, JAK3 (Homo sapiens, UniProt P52333).
T1 sequence (P52333 1-1124): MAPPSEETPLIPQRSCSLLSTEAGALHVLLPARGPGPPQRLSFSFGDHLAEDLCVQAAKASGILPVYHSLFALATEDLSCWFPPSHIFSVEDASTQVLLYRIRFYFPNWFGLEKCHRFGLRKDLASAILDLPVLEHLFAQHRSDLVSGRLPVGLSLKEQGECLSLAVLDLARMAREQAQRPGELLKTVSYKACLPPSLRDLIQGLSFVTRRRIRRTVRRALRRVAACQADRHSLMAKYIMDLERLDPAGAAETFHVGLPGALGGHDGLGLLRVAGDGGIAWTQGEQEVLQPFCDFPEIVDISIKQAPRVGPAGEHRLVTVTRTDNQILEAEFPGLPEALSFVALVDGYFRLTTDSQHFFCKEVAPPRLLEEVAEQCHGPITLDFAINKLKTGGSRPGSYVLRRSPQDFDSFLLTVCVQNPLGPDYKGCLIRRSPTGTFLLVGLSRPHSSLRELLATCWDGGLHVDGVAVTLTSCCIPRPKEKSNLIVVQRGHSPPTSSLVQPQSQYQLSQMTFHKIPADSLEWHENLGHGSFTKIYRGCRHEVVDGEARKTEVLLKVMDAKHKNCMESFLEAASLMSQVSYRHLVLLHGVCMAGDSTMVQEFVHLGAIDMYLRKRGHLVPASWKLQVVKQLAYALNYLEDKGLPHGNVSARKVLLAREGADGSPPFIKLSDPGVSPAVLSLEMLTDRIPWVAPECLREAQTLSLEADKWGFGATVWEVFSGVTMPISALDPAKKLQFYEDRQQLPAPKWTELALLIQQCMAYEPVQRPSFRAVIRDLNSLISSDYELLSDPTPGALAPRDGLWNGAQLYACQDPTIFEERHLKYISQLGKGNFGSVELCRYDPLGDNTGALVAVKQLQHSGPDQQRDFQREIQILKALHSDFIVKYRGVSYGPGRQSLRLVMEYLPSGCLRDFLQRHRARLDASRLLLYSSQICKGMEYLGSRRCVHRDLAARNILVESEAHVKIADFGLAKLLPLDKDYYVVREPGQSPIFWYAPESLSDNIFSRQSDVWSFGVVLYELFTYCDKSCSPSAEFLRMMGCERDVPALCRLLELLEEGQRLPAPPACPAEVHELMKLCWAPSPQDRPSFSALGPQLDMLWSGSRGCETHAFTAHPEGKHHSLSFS
Description: JAK kinase activity, homogeneous time-resolved fluorescence (JAK3 reaction system). To be noted: ATP 2 μM, JAK3 protein 0.04 ng/μL; read-out: JAK 3 activity.

A further experiment concerns the target JAK2 (Homo sapiens, UniProt O60674). Description: JAK kinase activity, homogeneous time-resolved fluorescence (JAK2 reaction system). To be noted: ATP 2 μM, JAK2 protein 0.01 ng/μL. A digest of the protocol: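 IC50 derived by Hill-equation fit of the 665/615 nm time-resolved fluorescence ratio after EDTA-containing detection mix with anti-phosphosubstrate antibody. Preceding 1 h reaction contained 2 μM ATP, 0.01 ng/μL JAK2, substrate, 50 mM Hepes pH 7.0, 5 mM MgCl2, 1 mM DTT.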

A value given as a limit tells only on which side of the number the result lay.

Chain of JAK1 (P23458 whole entry): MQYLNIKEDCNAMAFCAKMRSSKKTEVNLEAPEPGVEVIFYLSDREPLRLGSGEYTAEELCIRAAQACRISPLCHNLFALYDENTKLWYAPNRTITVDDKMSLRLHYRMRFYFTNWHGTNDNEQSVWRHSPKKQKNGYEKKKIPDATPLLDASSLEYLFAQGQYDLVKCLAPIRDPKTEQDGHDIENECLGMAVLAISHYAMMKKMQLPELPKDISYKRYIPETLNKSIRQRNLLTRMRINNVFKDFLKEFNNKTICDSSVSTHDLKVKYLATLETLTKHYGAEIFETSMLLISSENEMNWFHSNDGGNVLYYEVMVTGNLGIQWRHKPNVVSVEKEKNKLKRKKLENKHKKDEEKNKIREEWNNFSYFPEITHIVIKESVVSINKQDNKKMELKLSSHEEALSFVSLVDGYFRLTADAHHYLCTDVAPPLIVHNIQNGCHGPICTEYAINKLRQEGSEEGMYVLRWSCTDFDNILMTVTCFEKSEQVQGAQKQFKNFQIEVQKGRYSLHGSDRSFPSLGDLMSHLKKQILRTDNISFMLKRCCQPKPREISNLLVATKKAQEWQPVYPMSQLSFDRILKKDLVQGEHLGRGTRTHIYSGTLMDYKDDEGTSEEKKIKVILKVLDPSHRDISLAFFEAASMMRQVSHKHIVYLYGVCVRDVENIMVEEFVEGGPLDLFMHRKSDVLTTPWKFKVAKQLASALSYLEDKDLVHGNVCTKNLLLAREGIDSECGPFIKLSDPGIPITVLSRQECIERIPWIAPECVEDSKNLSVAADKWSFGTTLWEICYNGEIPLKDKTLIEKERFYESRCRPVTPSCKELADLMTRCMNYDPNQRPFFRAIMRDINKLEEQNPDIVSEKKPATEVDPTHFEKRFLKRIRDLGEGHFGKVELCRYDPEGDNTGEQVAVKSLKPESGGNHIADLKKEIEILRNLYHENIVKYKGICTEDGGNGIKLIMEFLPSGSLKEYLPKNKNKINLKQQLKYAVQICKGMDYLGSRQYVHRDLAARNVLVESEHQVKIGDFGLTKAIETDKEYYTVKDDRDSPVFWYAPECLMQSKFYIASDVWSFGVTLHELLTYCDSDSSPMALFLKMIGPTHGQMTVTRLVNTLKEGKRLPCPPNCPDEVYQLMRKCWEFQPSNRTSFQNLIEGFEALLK
Chain of JAK2 (O60674 whole entry): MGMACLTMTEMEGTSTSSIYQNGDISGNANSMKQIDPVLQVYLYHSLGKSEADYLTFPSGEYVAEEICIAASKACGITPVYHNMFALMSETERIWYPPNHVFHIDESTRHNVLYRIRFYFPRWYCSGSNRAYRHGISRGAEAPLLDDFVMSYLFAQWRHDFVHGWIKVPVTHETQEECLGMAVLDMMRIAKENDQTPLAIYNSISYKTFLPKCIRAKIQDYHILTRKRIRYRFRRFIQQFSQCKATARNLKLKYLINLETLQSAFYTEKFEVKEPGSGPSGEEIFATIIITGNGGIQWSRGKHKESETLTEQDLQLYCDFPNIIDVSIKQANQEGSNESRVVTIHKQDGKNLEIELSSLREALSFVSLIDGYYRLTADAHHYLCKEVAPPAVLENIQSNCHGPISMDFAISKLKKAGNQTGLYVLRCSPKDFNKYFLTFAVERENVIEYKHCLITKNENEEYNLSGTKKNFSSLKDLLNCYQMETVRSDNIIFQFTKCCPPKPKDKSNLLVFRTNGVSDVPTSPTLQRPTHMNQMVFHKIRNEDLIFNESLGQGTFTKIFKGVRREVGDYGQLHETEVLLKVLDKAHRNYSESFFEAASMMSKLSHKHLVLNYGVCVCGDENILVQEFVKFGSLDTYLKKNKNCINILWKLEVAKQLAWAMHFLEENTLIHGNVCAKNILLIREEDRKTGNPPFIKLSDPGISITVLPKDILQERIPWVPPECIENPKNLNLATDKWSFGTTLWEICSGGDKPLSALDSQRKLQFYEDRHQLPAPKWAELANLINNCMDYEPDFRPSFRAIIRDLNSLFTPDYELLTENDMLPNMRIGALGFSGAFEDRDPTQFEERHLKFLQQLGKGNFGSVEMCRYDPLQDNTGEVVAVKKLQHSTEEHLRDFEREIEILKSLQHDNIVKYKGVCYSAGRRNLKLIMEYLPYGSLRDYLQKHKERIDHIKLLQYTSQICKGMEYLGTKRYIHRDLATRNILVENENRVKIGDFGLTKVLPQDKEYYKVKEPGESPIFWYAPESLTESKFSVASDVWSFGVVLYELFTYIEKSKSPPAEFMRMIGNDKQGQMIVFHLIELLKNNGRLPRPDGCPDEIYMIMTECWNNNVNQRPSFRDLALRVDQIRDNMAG
Chain of TYK2 (P29597 whole entry): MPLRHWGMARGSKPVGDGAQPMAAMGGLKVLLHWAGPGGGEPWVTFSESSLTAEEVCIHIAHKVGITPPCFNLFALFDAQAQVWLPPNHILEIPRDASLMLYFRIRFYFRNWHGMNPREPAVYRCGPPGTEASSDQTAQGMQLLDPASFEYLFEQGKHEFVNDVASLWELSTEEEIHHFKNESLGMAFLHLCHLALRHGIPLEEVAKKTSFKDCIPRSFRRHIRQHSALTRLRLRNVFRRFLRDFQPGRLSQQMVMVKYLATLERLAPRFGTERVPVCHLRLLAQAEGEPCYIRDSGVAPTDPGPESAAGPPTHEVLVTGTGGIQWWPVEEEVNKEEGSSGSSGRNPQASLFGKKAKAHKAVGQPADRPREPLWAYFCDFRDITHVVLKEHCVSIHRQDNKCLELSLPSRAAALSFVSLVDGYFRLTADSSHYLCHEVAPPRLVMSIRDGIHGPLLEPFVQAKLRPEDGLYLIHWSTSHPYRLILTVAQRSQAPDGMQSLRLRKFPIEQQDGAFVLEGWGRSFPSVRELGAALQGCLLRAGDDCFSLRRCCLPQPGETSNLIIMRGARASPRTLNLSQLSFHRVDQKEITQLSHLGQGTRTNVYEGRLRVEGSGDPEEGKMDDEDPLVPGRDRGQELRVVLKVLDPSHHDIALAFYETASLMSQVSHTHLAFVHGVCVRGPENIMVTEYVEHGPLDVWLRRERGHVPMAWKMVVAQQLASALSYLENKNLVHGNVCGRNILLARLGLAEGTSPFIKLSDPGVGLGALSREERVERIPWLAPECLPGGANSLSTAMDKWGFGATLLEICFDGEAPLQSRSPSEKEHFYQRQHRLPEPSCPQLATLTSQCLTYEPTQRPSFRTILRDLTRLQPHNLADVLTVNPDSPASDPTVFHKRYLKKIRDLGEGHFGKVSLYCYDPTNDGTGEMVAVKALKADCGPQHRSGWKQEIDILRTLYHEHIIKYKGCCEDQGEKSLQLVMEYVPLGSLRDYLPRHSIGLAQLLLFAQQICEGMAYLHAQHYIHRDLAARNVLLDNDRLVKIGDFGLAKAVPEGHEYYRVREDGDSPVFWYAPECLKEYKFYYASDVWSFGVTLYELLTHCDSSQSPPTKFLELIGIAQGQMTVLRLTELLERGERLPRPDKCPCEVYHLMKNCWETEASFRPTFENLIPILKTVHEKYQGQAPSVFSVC

For the molecule `O=C1NCCCCOCc2cc(ccc2N2CCOCC2)Nc2nccc(n2)-c2ccc1cc2I` [Example 41, 1^2-iodine-4^4-morpholin-6-oxa-3,11-diaza-2(4,2)-pyrimidina-1(1,4),4(1,3)-dibenzenacyclododephan-12-one], the IC50 on TYK2 fell in the range of 1 to 10 µM; on JAK1, 1 to 10 µM; at JAK3, 0.101 to 1 µM; against JAK2, 0.101 to 1 µM.
For the molecule `Cc1cc2ccc1-c1ccnc(n1)Nc1ccc(N3CCCCC3)c(c1)COCCCCNC2=O` [Example 42, 1^2-methyl-4^4-(piperidin-1-)-6-oxa-3,11-diaza-2(4,2)-pyrimidina-1(1,4),4(1,3)-dibenzenacyclododecaphan-12-one], the IC50 on TYK2 was in the range of 0.101 to 1 µM; on JAK1, 1 to 10 µM; on JAK3 it was 0.011 to 0.1 µM; against JAK2, 0.101 to 1 µM.
Regarding `Cc1ccc2cc1COCCCCNC(=O)c1ccc(c(N)c1)-c1ccnc(n1)N2` [Example 43, 1^2-amino-4^4-methyl-6-oxa-3,11-dia-za-2(4,2)-pyrimidina-1(1,4),4(1,3)-dibenzenacyclododecaphan-12-one], the IC50 is > 10 µM at TYK2, 1 to 10 µM on JAK1, 0.101 to 1 µM at JAK3 and 1 to 10 µM against JAK2.
In the case of `Cc1cc2ccc1-c1ccnc(n1)Nc1ccc(OC3CCCCC3)c(c1)COCCCCNC2=O` [Example 44, 1^2-methyl-4^4-cyclohexyloxy-6-oxa-3,11-diaza-2(4,2)-pyrimidina-1(1,4)-4(1,3)-dibenzenacyclododecaphan-12-one], the IC50 at TYK2 is 1 to 10 µM; at JAK1, 1 to 10 µM; at JAK3, 0.011 to 0.1 µM; against JAK2 it was 0.101 to 1 µM.
In the case of `Cc1cc2ccc1-c1nc(ncc1C)Nc1ccc(F)c(c1)COCCCCNC2=O` [Example 45, 1^2,2^5-dimethyl-4^4-fluoro-6-oxa-3,11-diaza-2(4,2)-pyrimidina-1(1,4),4(1,3)-dibenzenacyclododecaphan-12-one], the IC50 was > 10 µM on TYK2, 1 to 10 µM on JAK1, 1 to 10 µM at JAK3 and 1 to 10 µM against JAK2.
As for `Cc1cc2ccc1-c1ccnc(n1)Nc1cc(cc(N3CCOCC3)c1)COCCCCNC2=O` [Example 46, 1^2-methyl-4^4-morpholin-6-oxa-3,11-diaza-2(4,2)-pyrimidina-1(1,4),4(1,3)-dibenzenacyclododecaphan-12-one], the IC50 at TYK2 lay within 1 to 10 µM; on JAK1, 1 to 10 µM; on JAK3, 0.011 to 0.1 µM; against JAK2, 0.101 to 1 µM.
Take `Nc1cc2ccc1-c1ccnc(n1)Nc1ccc(OC3CCCCC3)c(c1)COCCCCNC2=O` [Example 47, 1^2-amino-4^4-cyclohexyloxy-6-oxa-3,11-diaza-2(4,2)-pyrimidina-1(1,4),4(1,3)-dibenzenacyclododecaphan-12-one]: the IC50 at TYK2 fell in the range of 1 to 10 µM; on JAK1, 1 to 10 µM; on JAK3, 0.011 to 0.1 µM; on JAK2, 1 to 10 µM.
Take `O=C1NCCCCOCc2cc(ccc2N2CCCCC2)Nc2nccc(n2)-c2ccc1cc2[N+](=O)[O-]` [Example 48, 1^2-nitro-4^4-(piperidin-1-)-6-oxa-3,11-diaza-2(4,2)-pyrimidina-1(1,4),4(1,3)-dibenzenacyclododecaphan-12-one]: the IC50 on TYK2 lay in the range of 1 to 10 µM; at JAK1, 1 to 10 µM; on JAK3, 0.101 to 1 µM; against JAK2, 1 to 10 µM.
Consider `O=C1NCCCCCOCc2cc(ccc2N2CCOCC2)Nc2nccc(n2)-c2ccc1cc2[N+](=O)[O-]` [Example 49, 1^2-nitro-4^4-morpholin-6-oxa-3,12-di-aza-2(4,2)-pyrimidina-1(1,4),4(1,3)-dibenzenacyclotridecaphan-13-one], for which the IC50 on TYK2 lay in the range of 1 to 10 µM; at JAK1 it was 1 to 10 µM; at JAK3, 1 to 10 µM; against JAK2, 0.101 to 1 µM.
